Blank lines part the entries; values can stand above or below the molecule they belong to.
Tests used:
caspase-1 = biological target: T1, caspase-1 (Homo sapiens, UniProt P29466); experiment: Recombinant caspase enzyme inhibition, fluorogenic substrate Ac-YVAD-AMC; format: biochemical; conditions: Reversible Inhibitor
T1 construct: made in house; host or cells: transformed bacterium (pET vector)
T1 sequence (P29466 120-297 limits assumed): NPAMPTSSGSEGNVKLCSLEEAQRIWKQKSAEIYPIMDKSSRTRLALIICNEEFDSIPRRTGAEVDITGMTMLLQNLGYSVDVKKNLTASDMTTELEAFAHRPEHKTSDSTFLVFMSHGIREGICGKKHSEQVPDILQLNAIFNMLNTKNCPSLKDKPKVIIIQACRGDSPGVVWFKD
T1 sequence (P29466 317-404 limits assumed): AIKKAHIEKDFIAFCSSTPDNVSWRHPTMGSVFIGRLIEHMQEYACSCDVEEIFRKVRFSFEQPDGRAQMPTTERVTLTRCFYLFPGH
Protocol: In the present experiment recombinant caspases were purified from a transformed bacterium after human caspase genes were cloned into the expression vector pET, and then used in the experiment (Thornberry, N. A. et al. Nature, 1992, 356, 768. Thornberry, N. A. Methods in Enzymology, 1994, 615.).
Enzymatic activity was measured by a known procedure (Walker N. P. C. et al., Cell 1994, 78, 343). Briefly, 10 ng of recombinant protein was mixed with 50 mM Tris(pH 7.0), 1 mM DTT, 0.5 mM EDTA, 10% Glycerol buffer containing 1˜100 μM of enzyme substrate, Ac-YVAD-AMC or Ac-DEVD-AMC and then the changes by isolated AMC at 37° C. were recorded. The inhibitory activity for caspases was calculated from the early enzyme reaction rate by measuring the changes with fluorescence excited at […] and emitted at 460 nm (Range; Ki<100 nM).

[1] = tested on: caspase-3-like activity (Ac-DEVD-pNA); experiment: Caspase-3-like activity in TNFα/ActD-treated primary rat hepatocytes; format: cell-based; conditions: 100 μM, 8 hrs
Protocol: Primary rat hepatocytes were isolated and purified from male Sprague-Dawley rats using a collagenase digestion method. The hepatocytes were purified over 30% Percoll gradient by centrifugation at 1,000×g for 10 min. at 4° C. […] The cells were plated on collagen-coated tissue culture plates at a density of 2×10^5 cells/well in 12-well plates for cell viability analysis or 5×10^6 cells/100 mm dish for enzyme assays. After 18 hrs preculture, the cells were treated with 2,000 units/ml TNFα and 0.2 μg/ml Actinomycin (ActD). Caspase activity and cell viability was determined by colorimetry using a caspase substrate Ac-DEVD-pNA and crystal violet staining method at 8 hrs and 12 hrs, respectively.

[2] = tested on: W138 cells (human embryonal lung fibroblast); experiment: Protection from IFNγ and anti-Fas antibody-induced apoptosis (XTT); format: cell-based; conditions: IFNγ 200 units/ml + anti-Fas antibody 40 ng/well; for cell viability (control without Fas antibody = 100%): 50 μM, 50 µM; for viability at 0.4 µM / viability at 2 µM / viability at 10 µM / viability at 50 µM: Homo sapiens, read-out: cell viability (control without Fas antibody = 100%); for viability at 0.4 µM: W138, 0.4 μM; for viability at 2 µM: W138, 2 μM; for viability at 10 µM: W138, 10 μM; for viability at 50 µM: W138, 50 μM
Protocol: W138 cells (human embryonal lung fibroblast) were grown in a medium containing DMEM-10% FBS within, 10 cm diameter dishes until reaching at confluency. The cells were seeded into a 24-well plate at day 1 and incubated overnight while the volume of medium was maintained to 400 μl. Cells were treated with 200 units/ml of IFNγ at day 2 and incubated over 12 hrs or more. At day 3, each 100 μl of test compound was added to the cells after diluting the 10 mM stock compound in DMSO to final concentrations of 50, 10, 2, and 0.4 μM, respectively. The cells were incubated for 2 hrs in order for allowing the compound to enter into the cells and then treated with 40 ng/well of anti-Fas antibody(apoptosis was induced 2 hrs after antibody was treated and the incubation was continued overnight). The control was not treated with Fas antibody. […] After coloring, 100-200 μl of the supernatant was transferred to a 96-well plate and the absorbance at 490 nm was read with ELISA plate reader. For the blank, XTT solution was added to the well continued the medium only. Plotting was determined by comparing with the control group (100% when Fas antibody was not treated).

Compound: CC1(C(=O)N[C@@H](CC(=O)O)C(=O)COc2ccccc2)CC([C@H](CCC(=O)O)NC(=O)CCC(=O)O)=NO1 (mixture of isomers) [Compound 46, (3S)-3-{3-[(1S)-1-(Succinoylamino)-3-carboxy-propyl]-5-methyl-4,5-dihydro-isoxazole-5-carbonylamino}-4-keto-5-phenoxy-pentanoic Acid]
- Ki (caspase-1): 29.1 nM

Compound: CC(C)[C@H](NC(=O)CCC(=O)O)C1=NOC(C)(C(=O)N[C@@H](CC(=O)O)C(=O)CN2CCCC2)C1 (stereo partly drawn) [Compound 78, (3S)-3-{3-[2-methyl-(1S)-1-(succinoylamino)-propyl]-5-methyl-4,5-dihydro-isoxazole-5-cabonylamino}-4-keto-5-(N-pyrrolidine)-pentanoic acid]
- Ki (caspase-1): 63900 nM

Compound: CC(=O)N[C@@H](CC(=O)O)C(=O)N[C@@H](CCC(=O)O)C(=O)N[C@H](C(=O)N[C@H](C=O)CC(=O)O)C(C)C [Ac-DEVD-CHO]
- caspase-3-like activity increased by TNFα/ActD (FIG. 15A) [1]: not different

Compound: CC(C)[C@H](NC(=O)c1ccc2ccccc2c1)C1=NOC(Cc2ccccc2)(C(=O)N[C@@H](CC(=O)O)C(=O)COC(=O)c2c(Cl)cccc2Cl)C1 (stereo partly drawn) [Compound 28, (3S)-3-{3-[(1S)-1-(Naphthalene-2-carbonylamino)-2-methyl-propyl]-5-phenylmethyl-4,5-dihydro-isoxazole-5-carbonylamino}-4-keto-5-(2,6-dichlorobenzoyloxy)-pentanoic Acid]
- cell viability (control without Fas antibody = 100%) [2]: 90.39%
- viability at 0.4 µM [2]: 14.7%
- viability at 2 µM [2]: 17.3%
- viability at 10 µM [2]: 82.4%
- viability at 50 µM [2]: 90%

Compound: CC(C)[C@H](NC(=O)c1ccc2ccccc2c1)C1=NOC(C(=O)N[C@@H](CC(=O)O)C(=O)COc2ccccc2)C1 (stereo partly drawn) [Compound 30, (3S)-3-{3-[2-Methyl-(1S)-1-(2-naphthalenecarbonylamino)-propyl]-4,5-dihydro-isoxazole-5-carbonylamino}-4-keto-5-phenoxy-pentanoic Acid]
- Ki (caspase-1): 19.1 nM

Compound: CC(C)[C@H](NC(=O)c1ccc2ccccc2c1)C1=NOC(C(=O)N[C@@H](CC(=O)O)C(=O)COc2ccc3ccccc3c2)C1 (stereo partly drawn) [Compound 29, (3S)-3-{3-[(1S)-1-(Naphthalene-2-carbonylamino)-2-methyl-propyl]-4,5-dihydro-isoxazole-5-carbonylamino}-4-keto-5-(2-naphthyloxy)-pentanoic Acid]
- Ki (caspase-1): 0.324 nM

Compound: CC(=O)[C@H](CC(=O)O)NC(=O)C1(COc2ccccc2)CC([C@@H](NC(=O)c2ccc3ccccc3n2)C(C)C)=NO1 (mixture of isomers) [Compound 22, (3S)-3-{3-[(1S)-1-(Quinoline-2-yl-carbonylamino)-2-methyl-propyl]-5-phenoxymethyl-4,5-dihydro-isoxazole-5-carbonylamino}-4-keto-pentanoic Acid]
- cell viability (control without Fas antibody = 100%) [2]: 78.29%
- viability at 0.4 µM [2]: 14.4%
- viability at 2 µM [2]: 18.3%
- viability at 10 µM [2]: 35.4%
- viability at 50 µM [2]: 78%

The next lines start with the values.

- Ki (caspase-1): 969 nM
Compound: CCCC1(C(=O)N[C@@H](CC(=O)O)C(=O)COc2ccccc2)CC([C@@H](NC(=O)CCC(=O)O)C(C)C)=NO1 (mixture of isomers) [Compound 83, (3S)-3-{3-[2-Methyl-(1S)-1-(succinoylamino)-propyl]-5-propyl-4,5-dihydro-isoxazole-5-carbonylamino}-4-keto-5-phenoxy-pentanoic Acid]

- Ki (caspase-1): 26900 nM
Compound: CC(C)[C@H](NC(=O)CCC(=O)O)C1=NOC(C)(C(=O)N[C@@H](CC(=O)O)C(=O)COc2ccc3ccccc3c2)C1 (single isomer, unassigned) [Compound 81]

- Ki (caspase-1): 177 nM
Compound: CC(C)[C@H](NC(=O)CCC(=O)O)C1=NOC(C)(C(=O)N[C@@H](CC(=O)O)C(=O)COc2ccccc2)C1 (mixture of isomers) [Compound 47, (3S)-3-{3-[2-Methyl-(1S)-1-(succinoylamino)-propyl]-5-methyl-4,5-dihydro-isoxazole-5-carbonylamino}-4-keto-5-phenoxy-pentanoic Acid]

- Ki (caspase-1): 530 nM
Compound: CC(C)[C@H](NC(=O)CCC(=O)O)C1=NOC(C)(C(=O)N[C@@H](CC(=O)O)C(=O)COc2ccc3ccccc3c2)C1 (single isomer, unassigned) [Compound 82]

- Ki (caspase-1): 1.51 nM
Compound: CC(C)[C@H](NC(=O)c1cccc2ccccc12)C1=NOC(Cc2ccccc2)(C(=O)N[C@@H](CC(=O)O)C(=O)CN2CCCCC2)C1 (stereo partly drawn) [Compound 48, (3S)-3-{3-[2-Methyl-(1S)-1-(1-naphtalenycarbonylamino)-propyl]-5-phenylmethyl-4,5-dihydro-isoxazole-5-carbonylamino}-4-keto-5-(1-piperidinyl)-pentanoic Acid]
